Results taken from paper PMC10862865 (bioRxiv, 2024).

Target: tau4RD (Homo sapiens, UniProt P10636)
Test: Unseeded heparin-induced tau4RD aggregation, thioflavin T fluorescence
Format: biochemical
Settings: 1:2 protein:compound molar ratio; ThT fluorescence

tau4RD, sequence (P10636 561-685 limits assumed): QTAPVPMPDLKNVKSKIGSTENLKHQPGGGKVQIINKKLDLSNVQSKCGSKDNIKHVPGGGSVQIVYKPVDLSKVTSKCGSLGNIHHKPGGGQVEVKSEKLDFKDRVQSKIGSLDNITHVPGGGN

Compound: O=C1c2ccccc2-n2c1nc1ccccc1c2=O [compound 1, tryptanthrin]
- Inhibition of heparin-induced tau4RD aggregation in initial screen (in words): among the most potent inhibitors
